# Assay results as given in a melting point compilation (Tetko et al.; mined from patent text by program, amines drawn as free bases though some values may be those of a salt).
row,SMILES,melting point
1,CC(C)C(=O)NCc1ccc2ccn(C3CCN(CCc4ccc(F)cc4)CC3)c2c1,97 to 98 °C
2,CC1(c2cccc(N)c2)C2CN(Cc3ccccc3)C(=O)C21 (stereo not given),150 to 151 °C
3,C[C@H]1C[C@@]2(N)CN(c3c(F)cc4c(=O)c(C(=O)O)cn5c4c3OC[C@@H]5C)C[C@@H]12,122 to 124 °C
4,c1ccc2c(c1)NCc1cscc1N2,167 to 169 °C
5,c1ccc2c(c1)CSc1ccccc1C2n1ccnc1 (stereo not given),162 to 164 °C
6,Cc1cn(NC(=O)c2ccccc2C(=O)O)c2ccccc12,191 to 193 °C
7,N#CC(CCC(=O)O)(CC(=O)O)c1ccc(Cl)c(Cl)c1 (stereo not given),152 °C
8,CC(=O)c1nc(-c2ccc(C)nc2Cl)[nH]c1C,156 to 158 °C
9,CSc1nc(C)ccc1NC(=O)CCCCCCCCSc1nc2ccccc2[nH]1,73 to 75 °C
10,O=C(O)COc1cc(F)c(N2CCOCC2)cc1C(=O)NCc1ccc(Br)cc1F,180 °C
11,C=CCn1c(=O)c2nc(-c3ccc(/C=C/C(=O)O)cc3)[nH]c2n(CC=C)c1=O,> 300 °C
12,COC(=O)[C@H](C)NC(=O)CCCN(C(=O)c1ccc(Cl)cc1)c1c(C)cccc1C,91 to 92 °C
13,COc1nc(C(=O)N(C)Cc2cc(C(F)(F)F)cc(C(F)(F)F)c2)c(-c2ccccc2)c2ccccc12,129 to 130 °C
14,COc1cc(-c2nc(-n3cccn3)c3c(C)c(C#N)sc3n2)cc(OC)c1OC,209 to 214 °C
15,CCOC(=O)c1ccc(Nc2ccc([N+](=O)[O-])cc2N)cc1,145 to 150 °C
16,CC1=NC(NCc2ccc(O)c(OC(F)F)c2)C(C)(Cl)C=N1 (stereo not given),167 to 168 °C
17,FC(F)(F)c1ccc(-c2ncc(Br)cn2)cc1,167 °C
18,Cc1cc(-c2cc(C(F)(F)F)n3cnc(-c4ccncc4)c3n2)ccc1Cl,254 °C
19,CN(C)CCNC(=O)Nc1ccc(-c2cnc(COCc3cc4ccccc4o3)o2)cc1,150 to 154 °C
20,COCOc1cc(OC)c(OCOC)c(CCCCCc2c(OC)c(OCOC)c(C)c(OC)c2OCOC)c1OC,76 to 77 °C
21,COc1ccc(S(=O)(=O)c2ccccc2)cc1S(=O)(=O)NC1CCOCC1,176 to 178 °C
22,Cc1[nH]c2ccccc2c1C(=O)CCN(C)C,172 to 175 °C
23,O=C1NC(=O)C(c2ccccc2Cl)O1 (stereo not given),106 to 108 °C
24,Cc1ccc(-c2nc3ccccc3o2)cc1F,121 to 122 °C

row,SMILES,melting point
1,ClCCCCCCCCOc1ccc2ccccc2c1,35 °C
2,O=[N+]([O-])CCN1CCC(n2ccc(-c3ccc(F)cc3)c2-c2ccncc2)CC1,172 to 173 °C
3,CSc1cccc(-n2cnc(-c3ccc(F)cc3)c2-c2ccncc2)c1,155 to 156 °C
4,O=S1(=O)c2cccc3cccc(c23)N1CCN1CCC(Cc2c[nH]c3ccccc23)CC1,184 °C
5,NC(=O)c1cccc(C(N)=O)c1[N+](=O)[O-],283 to 285 °C
6,CCc1nc(/C=C/c2cccc(O)c2)sc1C,161 to 162 °C
7,CSc1nc(-c2cc(NC(=O)c3ccc(C)c(F)c3)ccc2C)c2c(n1)N(c1c(F)cccc1F)C(=O)NC2,167 to 173 °C
8,Cn1c(C(F)(F)F)cc(=O)n(-c2c(O)cc(F)cc2F)c1=O,195 to 196 °C
9,CC(=O)Nc1ccc(F)c(-c2cccnc2)c1F,154 to 155 °C
10,O=C(NCc1ncc(C(F)(F)F)cc1Cl)c1ccc(Br)o1,77.8 °C
11,COc1ccc(CN(C)CCc2ccc(NC(=O)c3cccc4c(=O)c5ccccc5n(C)c34)cc2)cc1OC,182 °C
12,Cc1ccc(Cl)cc1-n1c(CF)nc2ccc([N+](=O)[O-])cc2c1=O,191 to 192 °C
13,CCOC(=O)C(C)(C)Oc1ccc(C#CC(=O)c2ccc(Cl)cc2)cc1,68 to 70 °C
14,CCN(CC)c1cccc2nc3n(c12)CC(=O)CCN3c1ccc(Cl)cc1Cl,169 to 170 °C
15,CCc1nc(-c2cccc(C)c2)c(-c2ccnc(N)c2)s1,144 to 146 °C
16,COc1ccc(-c2c[nH]c(=O)nc2C)cc1,210 °C
17,COc1ccc(C2COc3cc(O)c(O)cc3C2)cc1OC (stereo not given),153 °C
18,CC(C)(C)OC(=O)CCS(=O)(=O)c1ccc(Br)cc1,105 °C
19,COc1cc(OCCn2cccc2)ccc1/C=C/c1cc(/C=C/c2ccc3cc[nH]c3c2)n[nH]1,102 to 110 °C
20,O=C1CC(=O)N(c2ccccc2)c2ccccc2N1NCCC1C2CC3CC(C2)CC1C3 (stereo not given),196 to 197 °C
21,CCOP(=O)(CC(=O)Nc1c(C(C)C)cccc1C(C)C)NCC(c1ccccc1)c1ccccc1 (stereo not given),172 to 176 °C
22,CC1(C)COc2ccc(C(N)=O)cc21,136 to 138 °C
23,NS(=O)(=O)c1cc(Cl)ccc1S,142 to 144 °C
24,CN(C)C(=O)c1ccc(CNC(=O)C2Cc3ccccc3N2S(=O)(=O)c2ccc(-c3cccc(C(F)(F)F)c3)cc2)cc1 (stereo not given),70 °C

row,SMILES,melting point
1,O=C(CCc1ccccc1)C(Cc1ccccc1)(Cc1ccccc1)C(=O)CCc1ccccc1,84 to 86 °C
2,CC(=O)N(c1ccccc1)c1[nH]c2ccccc2c1Sc1ccccc1,66 to 68 °C
3,CNC(=O)C(Cc1ccc(OC)cc1)NC(=O)C(CC(C)C)C(CC(=O)OC)SC(C)=O (stereo not given),118 to 135 °C
4,Oc1cccc(C#CC=Cc2cccc(O)c2)c1,146 to 147 °C
5,COC(=O)c1ccc2oc(CCc3cc4cc(C(=O)OC)ccc4o3)cc2c1,165 to 167 °C
6,CNc1nc(=O)n(CCCN2CCN(C(c3ccccc3)c3ccccc3)CC2)c2ccccc12,238 to 240 °C
7,N#Cc1cc2ccccc2cc1O,188 to 189 °C
8,CCc1c([N+](=O)[O-])c(C(N)=O)nn1C[C@@H]1CCCN1C(=O)OC(C)(C)C,68 to 75 °C
9,Cc1cc(OCc2ccccc2)c(C)cc1C=O,48 to 49 °C
10,O=S1(=O)NCN(C2CC2)c2c(C(F)(F)F)cccc21,165 to 167 °C
11,CCOC(=O)c1ccc2[nH]cc(C3CCN(C)CC3)c2c1,155 to 157 °C
12,Clc1nnc(C(Cl)(Cl)Cl)s1,41 °C
13,O=S1C(c2cccc(-c3ccc(O)c(C45CC6CC(CC(C6)C4)C5)c3)n2)=CN=C1N1CCOCC1 (stereo not given),339 to 343 °C
14,COC(=O)c1ccc(-c2cccc([N+](=O)[O-])c2)cc1,136 to 141 °C
15,Cc1cc(C(O)(C(F)(F)F)C(F)(F)F)cc(C)c1NCCCN,130 to 133 °C
16,COCOc1ccc(/C=C/C(=O)/C=C/c2ccc(OCOC)c(OCOC)c2)cc1OCOC,86 to 88 °C
17,CN1C(=O)CC[C@]2(C)c3ccc(-c4nc5ccccc5[nH]4)cc3CC[C@@H]12,183 to 186 °C
18,CC12CC=C3C(CCC4(CCC#N)CC(O[Si](C)(C)C(C)(C)C)CCC34C)C1CCC2O[Si](C)(C)C(C)(C)C (stereo not given),194 to 195 °C
19,COc1cc(C(=O)Nc2c(C)cc3cn(C(=O)OC(C)(C)C)nc3c2C(=O)NC(C)C)n(N2C=CC=C(Cl)C2)n1,161 to 162 °C
20,FC(F)(F)c1ccc2nc(C3CCN(c4ncccc4Cl)CC3)[nH]c2c1,74 °C
21,CC(O)(COc1ccc(C(=O)c2ccccc2)cc1)C(F)(F)F (stereo not given),70 to 73 °C
22,OCCC1Cc2ccccc2CN1C(=S)Nc1cccnc1 (racemic),174 °C
